Data on 21 molecules can be found in patent publication US9873702B2, “Heterocyclic compounds as biogenic amine transport modulators” (Southern Research Institute, priority 2014, dated 2018).

Data set [1] deals with dopamine transporter (DAT) (Rattus norvegicus, UniProt P23977). Briefly: Dopamine reuptake ([^3H]dopamine uptake) inhibition in rat brain synaptosomes. Particulars: for IC50: DA Uptake EC50 (nM ± SD), rat caudate synaptosomes, 5 nM [^3H]dopamine, 15 min, 25° C., three experiments pooled; for Emax: read-out: DA Uptake Emax (% I ± SD).

As usually defined, the IC50 is the midpoint of a concentration-inhibition curve. Higher therefore signals lower potency. As usually defined, the Emax is the size of the effect at its maximum, as opposed to the concentration needed. Usually melting point stands for the temperature of the solid-liquid transition.

Chain of dopamine transporter (DAT) (P23977 whole entry): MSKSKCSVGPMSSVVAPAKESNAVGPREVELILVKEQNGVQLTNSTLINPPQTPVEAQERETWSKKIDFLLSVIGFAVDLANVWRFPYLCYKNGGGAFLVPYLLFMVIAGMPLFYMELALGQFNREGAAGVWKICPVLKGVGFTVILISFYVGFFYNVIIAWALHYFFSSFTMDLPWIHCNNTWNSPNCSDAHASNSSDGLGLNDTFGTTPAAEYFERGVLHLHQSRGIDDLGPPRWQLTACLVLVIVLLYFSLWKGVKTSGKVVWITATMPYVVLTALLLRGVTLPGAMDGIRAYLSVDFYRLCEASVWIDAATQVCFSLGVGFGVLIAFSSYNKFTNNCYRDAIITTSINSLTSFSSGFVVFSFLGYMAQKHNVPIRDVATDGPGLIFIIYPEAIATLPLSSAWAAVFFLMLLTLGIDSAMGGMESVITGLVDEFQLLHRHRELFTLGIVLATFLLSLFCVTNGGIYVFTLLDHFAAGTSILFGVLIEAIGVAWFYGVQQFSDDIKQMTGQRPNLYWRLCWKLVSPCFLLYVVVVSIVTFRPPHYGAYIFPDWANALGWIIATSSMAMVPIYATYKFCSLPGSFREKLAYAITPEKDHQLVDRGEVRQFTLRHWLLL

Take `c1ccc(C(CNc2nc(-c3ccc4[nH]ncc4c3)nc3ccccc23)c2ccccc2)cc1` [compound 40, N-(2,2-Diphenylethyl)-2-(1H-Indazol-5-yl)Quinazolin-4-Amine]: the melting point is 191 °C. For the same molecule, in data set [1], the IC50 came out at 124 ± 37 nM and the Emax is 74 ± 4%.
In turn, `c1ccc(C(CNc2nc(-c3cc4ccccc4[nH]3)nc3ccccc23)c2ccccc2)cc1` [compound 42, N-(2,2-Diphenylethyl)-2-(1H-Indol-2-yl)Quinazolin-4-Amine] came in with a melting point of 93 °C. Also, in data set [1], 200 nM corresponded to half-maximal inhibition (IC50) and the Emax is < 100%.
Turning to `CC(C)(C)OC(=O)Nc1ncc(-c2nc(NCC(c3ccccc3)c3ccccc3)c3ccccc3n2)cn1` [compound 43, Tert-Butyl (5-(4-((2,2-Diphenylethyl)Amino)Quinazolin-2-yl)Pyrimidin-2-yl)Carbamate], the melting point stood at 189 °C. In data set [1], the IC50 was 1890 nM and the Emax is < 100%.
Take `Nc1ncc(-c2nc(NCC(c3ccccc3)c3ccccc3)c3ccccc3n2)cn1` [compound 44, 2-(2-Aminopyrimidin-5-yl)-N-(2,2-Diphenylethyl)Quinazolin-4-Amine]: the melting point came to 148 °C. In data set [1], the IC50 worked out at 79 ± 19 nM and the Emax is 81 ± 3%.
The molecule `FC(F)(F)CNc1ncc(-c2nc(NCC(c3ccccc3)c3ccccc3)c3ccccc3n2)cn1` [compound 45, N-(2,2-Diphenylethyl)-2-(2-((2,2,2-Trifluoroethyl)Amino)Pyrimidin-5-yl)Quinazolin-4-Amine] gave a melting point of 224 °C. Moreover, in data set [1], the IC50 was found to be 175 ± 68 nM and the Emax stood at 58 ± 4%.
Take `c1ccc(CNc2ncc(-c3nc(NCC(c4ccccc4)c4ccccc4)c4ccccc4n3)cn2)cc1` [compound 46, 2-(2-(Benzylamino)Pyrimidin-5-yl)-N-(2,2-Diphenylethyl)Quinazolin-4-Amine]: the melting point is 184 °C. In data set [1], the IC50 came to 544 ± 248 nM and the Emax was 60 ± 6%.
On the same counts, the results for `COCCNc1ncc(-c2nc(NCC(c3ccccc3)c3ccccc3)c3ccccc3n2)cn1` [compound 47, N-(2,2-Diphenylethyl)-2-(2-((2-Methoxyethyl)Amino)Pyrimidin-5-yl)Quinazolin-4-Amine] are 199 °C, 148 ± 40 nM and 73 ± 4%.
Take `c1ccc(C(CNc2nc(-n3ccnc3)nc3ccccc23)c2ccccc2)cc1` [compound 48, N-(2,2-Diphenylethyl)-2-(1H-Imidazol-1-yl)Quinazolin-4-Amine]: the melting point is 231 °C. Further, in data set [1], the midpoint of inhibition, the IC50, lay at 38 ± 5 nM and the Emax is 73 ± 2%.
`c1ccc(C(CNc2nc(-c3cccc4ncccc34)nc3ccccc23)c2ccccc2)cc1` [compound 49, N-(2,2-Diphenylethyl)-2-(Quinolin-5-yl)Quinazolin-4-Amine]: the melting point was found to be 207 °C. Besides, in data set [1], the IC50 worked out at 130 ± 16 nM and the Emax was determined as 73 ± 2%.
For `c1ccc(C(CNc2nc(-c3ccc4ncccc4c3)nc3ccccc23)c2ccccc2)cc1` [compound 50, N-(2,2-Diphenylethyl)-2-(Quinolin-6-yl)Quinazolin-4-Amine], in that order: 92 °C, 26 ± 7 nM and 68 ± 3%.
Take `c1ccc(C(CNc2nc(-n3cccn3)nc3ccccc23)c2ccccc2)cc1` [compound 51, N-(2,2-Diphenylethyl)-2-(1H-Pyrazol-1-yl)Quinazolin-4-Amine]: the melting point was 191 °C. In data set [1], the half-maximal inhibitory concentration (IC50) turned out to be 510 nM and the Emax is < 100%.
`c1ccc(C(CNc2nc(-n3cncn3)nc3ccccc23)c2ccccc2)cc1` [compound 52, N-(2,2-Diphenylethyl)-2-(1H-1,2,4-Triazol-1-yl)Quinazolin-4-Amine] had a melting point of 216 °C. In data set [1], the IC50 came out at 680 nM and the Emax stood at 100%.
Take `Cc1nc(C)c(-c2nc(NCC(c3ccccc3)c3ccccc3)c3ccccc3n2)s1` [compound 54, 2-(2,4-Dimethylthiazol-5-yl)-N-(2,2-Diphenylethyl)Quinazolin-4-Amine]: the melting point amounted to 78 °C. Also, in data set [1], the IC50 was 72 ± 12 nM and the Emax worked out at 80 ± 2%.
Consider `c1ccc(C(CNc2nc(-c3ccc4nccnc4c3)nc3ccccc23)c2ccccc2)cc1` [compound 56, N-(2,2-Diphenylethyl)-2-(Quinoxalin-6-yl)Quinazolin-4-Amine], for which the melting point turned out to be 198 °C. In data set [1], the midpoint of inhibition, the IC50, lay at 89 ± 13 nM and the Emax was 70 ± 2%.
In turn, `CN(C)c1ncc(-c2cccc(C(CNc3nc(-c4cnc(N(C)C)nc4)nc4ccccc34)c3ccccc3)n2)cn1` (stereo not drawn) [compound 57, 2-(2-(Dimethylamino)Pyrimidin-5-yl)-N-(2-(6-(2-(Dimethylamino)Pyrimidin-5-yl)Pyridin-2-yl)-2-Phenylethyl)Quinazolin-4-Amine] yielded a melting point of 112 °C. In addition, in data set [1], the IC50 is 55 ± 18 nM and the Emax was found to be 61 ± 3%.
On the same counts, the results for `c1ccc(C(CNc2nc(-c3ccc4[nH]ccc4c3)nc3ccccc23)c2cccc(-c3ccc4[nH]ccc4c3)n2)cc1` (stereo not drawn) [compound 58, N-(2-(6-(1H-Indol-5-yl)Pyridin-2-yl)-2-Phenylethyl)-2-(1H-Indol-5-yl)Quinazolin-4-Amine] are 151 °C, 478 ± 154 nM and 65 ± 5%.
With `COc1ccc2nc(-c3cccnc3)nc(NCC(c3ccccc3)c3ccccc3)c2c1` [compound 59, N-(2,2-Diphenylethyl)-6-Methoxy-2-(Pyridin-3-yl)Quinazolin-4-Amine], the melting point was determined as 77 °C. Also, in data set [1], the IC50 is 529 ± 146 nM and the Emax was determined as 56 ± 3%.
`COc1ccc2nc(-c3cnc(N(C)C)nc3)nc(NCC(c3ccccc3)c3ccccc3)c2c1` [compound 60, 2-(2-(Dimethylamino)Pyrimidin-5-yl)-N-(2,2-Diphenylethyl)-6-Methoxyquinazolin-4-Amine] displayed a melting point of 198 °C. For the same molecule, in data set [1], the IC50 was found to be 947 ± 402 nM and the Emax is 55 ± 6%.
With `COc1ccc2nc(-c3ccc4[nH]ccc4c3)nc(NCC(c3ccccc3)c3ccccc3)c2c1` [compound 61, N-(2,2-Diphenylethyl)-2-(1H-Indol-5-yl)-6-Methoxyquinazolin-4-Amine], the melting point turned out to be 112 °C. Besides, in data set [1], the IC50 was found to be 115 ± 20 nM and the maximum response (Emax) stood at 80 ± 3%.
`CC(C)(C)OC(=O)n1cnc2cc(-c3nc(NCC(c4ccccc4)c4ccccc4)c4ccccc4n3)ccc21` [compound 62, Tert-Butyl 5-(4-((2,2-Diphenylethyl)Amino)Quinazolin-2-yl)-1H-Benzo [D]Imidazole-1-Carboxylate] returned a melting point of 183 °C. Further, in data set [1], the IC50 turned out to be 4210 nM and the Emax is < 100%.
On the same counts, the results for `c1ccc(C(CNc2nc(-c3ccc4[nH]nnc4c3)nc3ccccc23)c2ccccc2)cc1` [compound 63, 2-(1H-Benzo[D][1,2,3]Triazol-5-yl)-N-(2,2-Diphenylethyl)Quinazolin-4-Amine] are 220 °C, 192 ± 37 nM and 72 ± 3%.
